These results are taken from ChEMBL document CHEMBL4184091, “Microwave-assisted synthesis of novel 5-substituted benzylidene amino-2-butyl benzofuran-3-yl-4-methoxyphenyl methanones as antileishmanial and antioxidant agents” (Bioorg Med Chem Lett, 2018).

Experiment [1] has as its system Leishmania donovani. Briefly: Antileishmanial activity against promastigote form of Leishmania donovani NHOM/IN/80/DD8 assessed as decrease in cell viability after 72 hrs by MTT assay. The class given is functional, organism-based. The note with it: NHOM/IN/80/DD8, 72 h. (In general: Tetrazolium dyes change colour on reduction, which living cells bring about.)
Experiment [2] is described as follows: Antioxidant activity assessed as DPPH radical scavenging activity after 20 to 30 mins. It counts as functional. In general terms: Loss of DPPH colour is used to gauge radical scavenging.
Experiment [3] has as its system Leishmania donovani. In words: Potency index, ratio of sodium stibogluconate IC50 to compound IC50 for promastigote form of Leishmania donovani NHOM/IN/80/DD8. The class given is functional.

Converted amounts (≈) assume the structure as drawn.

Regarding `CCCCc1oc2ccc(/N=C/c3ccc(Cl)cc3)cc2c1C(=O)c1ccc(OC)cc1`, the figures for the concentration for half-maximal inhibition (IC50) (in the experiment with Leishmania donovani [1]; in experiment [2]) were 372 µg/mL (≈ 834 µM) and 75.86 µg/mL (≈ 170 µM), respectively.
The corresponding values for `CCCCc1oc2ccc(/N=C/c3cccc([N+](=O)[O-])c3)cc2c1C(=O)c1ccc(OC)cc1` are 103 µg/mL (≈ 226 µM) and 34.16 µg/mL (≈ 74.8 µM).
As to `CCCCc1oc2ccc(/N=C/c3ccc(OC)cc3OC)cc2c1C(=O)c1ccc(OC)cc1`, the half-maximal inhibitory concentration (IC50) (usually the concentration at which inhibition is half-maximal) with Leishmania donovani [1] is 52 µg/mL (≈ 110 µM); in experiment [2], 20.53 µg/mL (≈ 43.5 µM).
Turning to `CCCCc1oc2ccc(/N=C/c3ccccc3)cc2c1C(=O)c1ccc(OC)cc1`, the results for the IC50 (with Leishmania donovani [1]; in experiment [2]) were 279 µg/mL (≈ 677 µM) and 34.24 µg/mL (≈ 83.2 µM), respectively. In addition, in the experiment with Leishmania donovani [3], the “Ratio IC50” value came to 2.
As to `CCCCc1oc2ccc(/N=C/c3ccc(F)cc3)cc2c1C(=O)c1ccc(OC)cc1`, the IC50 was determined as 77.4 µg/mL (≈ 180 µM) in the experiment with Leishmania donovani [1] and 100.3 µg/mL (≈ 234 µM) in experiment [2].
The corresponding values for `CCCCc1oc2ccc(/N=C/c3ccc(OCC)c(OC)c3)cc2c1C(=O)c1ccc(OC)cc1` are 238 µg/mL (≈ 491 µM) and 14.78 µg/mL (≈ 30.4 µM).
The corresponding values for `CCCCc1oc2ccc(/N=C/c3ccc(Cl)cc3Cl)cc2c1C(=O)c1ccc(OC)cc1` are 124 µg/mL (≈ 258 µM) and 2.44 µg/mL (≈ 5.08 µM).
For `CCCCc1oc2ccc(/N=C/c3ccccc3O)cc2c1C(=O)c1ccc(OC)cc1`, the IC50 was 115 µg/mL (≈ 268 µM) in the experiment with Leishmania donovani [1] and 99.43 µg/mL (≈ 233 µM) in experiment [2]. Besides, in the experiment on Leishmania donovani [3], the “Ratio IC50” value is 4.
In the case of `CCCCc1oc2ccc(/N=C/c3ccc(O)cc3)cc2c1C(=O)c1ccc(OC)cc1`, the IC50 stood at 144 µg/mL (≈ 337 µM) in the experiment on Leishmania donovani [1] and 22.79 µg/mL (≈ 53.3 µM) in experiment [2]. In addition, in the experiment with Leishmania donovani [3], the “Ratio IC50” value worked out at 4.
Regarding `CCCCc1oc2ccc(/N=C/c3ccc(CC)cc3)cc2c1C(=O)c1ccc(OC)cc1`, the half-maximal inhibitory concentration (IC50) in the experiment with Leishmania donovani [1] was determined as 59.3 µg/mL (≈ 135 µM); in experiment [2], 3.69 µg/mL (≈ 8.39 µM).
On to `CCCCc1oc2ccc(/N=C/c3ccc(C#N)cc3)cc2c1C(=O)c1ccc(OC)cc1`, for which the values for the IC50 (in the experiment with Leishmania donovani [1]; in experiment [2]) were 101 µg/mL (≈ 231 µM) and 27.16 µg/mL (≈ 62.2 µM), respectively.
Turning to `CCCCc1oc2ccc(/N=C/c3ccc(O)cc3O)cc2c1C(=O)c1ccc(OC)cc1`, the results for the IC50 (in the experiment on Leishmania donovani [1]; in experiment [2]) were 109 µg/mL (≈ 246 µM) and 7.55 µg/mL (≈ 17 µM), respectively. In the experiment with Leishmania donovani [3], the “Ratio IC50” value turned out to be 4.
As for `CCCCc1oc2ccc(/N=C/c3ccc([N+](=O)[O-])cc3)cc2c1C(=O)c1ccc(OC)cc1`, the IC50 with Leishmania donovani [1] was 56 µg/mL (≈ 123 µM); in experiment [2] it was 53.11 µg/mL (≈ 116 µM).
As to `O=C1O[C@H]([C@@H](O)CO)C(O)=C1O` [ASCORBIC ACID], in experiment [2], the IC50 amounted to 3.31 µg/mL (≈ 18.8 µM).
On to `N=C(N)c1ccc(OCCCCCOc2ccc(C(=N)N)cc2)cc1` [PENTAMIDINE], for which the half-inhibitory concentration (IC50) with Leishmania donovani [1] was found to be 16.1 µg/mL (≈ 47.4 µM).
